# In patent US20150157651A1, “TRI-SUBSTITUTED GLYCEROL COMPOUNDS FOR USE IN THE TREATMENT OF CLINICALLY ISOLATED SYNDROME AND/OR MULTIPLE SCLEROSIS” (ALPHAPTOSE GMBH, priority 2012, published 2015):
# Entries after “also recorded” stand apart in the source; their conditions may differ.
# Tests used:
# [1] = system: human peripheral blood mononuclear cells (PBMCs); experiment: PBMC proliferation, edelfosine added on cell seeding, with or without PHA; type: cell-based
# Method: (§1) FIG. 1: Human T-cell proliferation was affected by edelfosine. […] (B) The inhibitory effect of edelfosine was also observed if the drug was added to already activated, proliferating T cells. […] (C) Preincubation of PBMCs with at least 3.3 μg/ml edelfosine interfered with the cells' capacity to proliferate upon PHA stimulation. No effect was detected in preconditioned, but unstimulated cells (experiments A-C: sample size n=3 donors, each approach was seeded in triplicates). (D) 1 μg/ml edelfosine or higher concentrations profoundly diminished proliferation in MBP(83-99)-specific TCLs (T-cell line). One representative TCL of two is shown. Cells were incubated in quadruplicates. (E) PBMCs were cultured without addition of stimulus. Proliferation was detectable after seven days. […] Bars represent mean values±SEM, *P<0.05, **P<0.01 and ***P<0.001 after post-hoc analysis.
# FIG. 9 describes the influence of edelfosine on human T cell proliferation. […] PBMCs were used for the examination of concentration-dependent edelfosine impact on human T cell activation and proliferation (b, 72 h of co-culture). A reduction in proliferation was already detectable upon addition of 1.0 μg/ml edelfosine (**P<0.01, n=3). Enriched CD4+ T cells from PBMCs of both two age-matched female and male donors were incubated for 30 h in presence of 3.3 μg/ml edelfosine. Cells were stimulated with beads coated with antibodies against CD2, CD3 and CD28.
# In order to characterize the influence of edelfosine on the proliferation of human T cells, peripheral blood mononuclear cells (PBMCs) were first stimulated with a mitogenic stimulus, PHA (phytohemagglutinin) Proliferation was analyzed after three days of culture. First, the impact of edelfosine on T-cell activation and proliferation was investigated by adding edelfosine immediately as the cells were seeded. Cells were incubated without or in the presence of PHA. […] Here, the half maximal inhibitory concentration (IC50) was determined by nonlinear regression.
# human PBMCs [2] = experiment: Proliferation of already PHA-activated, proliferating PBMCs, edelfosine added two days later; type: cell-based
# Method: as §1
# The second approach aimed at characterizing the edelfosine influence on already proliferating cells. For that reason cells were activated with PHA, and edelfosine was added two days later.
# human PBMCs [3] = experiment: PBMC proliferation after 24 h preincubation with edelfosine, washing, then PHA stimulation; type: cell-based
# Method: as §1
# Cells were washed extensively to remove edelfosine followed by further culturing for three days. In control approaches cells were incubated without PHA. […] 3.3 μg/ml edelfosine or higher interfered with the cellular capacity to proliferate upon stimulation with PHA.
# human PBMCs [4] = experiment: PBMC proliferation over seven days without addition of stimulus; type: cell-based; conditions: 3.3 μg/ml edelfosine, up to seven days
# Method: as §1
# In an additional approach PBMCs were incubated for up to seven days without the addition of a stimulus. Cells were cultured in medium alone, in presence of anti-HLA-DR- and anti-MHC class I-blocking antibody or with 3.3 μg/ml edelfosine.
# human CD4+ T cells [5] = experiment: Whole genome expression (microarray) analysis of CD4+ T cells; type: cell-based
# Method: FIG. 2: Modulated gene expression in CD4+ T cells upon culture with edelfosine.
# Enriched CD4+ T cells from PBMCs of two age-matched female as well as two age-matched male donors were incubated for 30 h without edelfosine, in presence of 3.3 μg/ml edelfosine and 10 μg/ml edelfosine, respectively. In parallel approaches, cells were incubated with beads coated with antibodies against CD2, CD3 and CD28 or with coated beads and 3.3 μg/ml edelfosine. Cell-culture supernatant was saved and cells were subjected to RNA isolation, cDNA synthesis and microarray analysis for gene expression. Comparative gene-expression analysis was performed according to FIG. 2.
# In general, edelfosine modulated the gene expression of human CD4+ T cells in the case of stimulation but also if no exogenous stimulus was added, although to a limited extent. […] Therefore, further analysis of the unstimulated cells focused on the 10 μg/ml edelfosine approach. Next, the database for annotation, visualization and integrated discovery (DAVID)-bioinformatics database was used to annotate the differentially expressed genes to functional themes/groups and assign to them so-called gene-ontology (GO) terms for specific pathways of cellular function (314). The GO project is an effort to consistently describe gene products in databases. DAVID, as a tool, is designed to allow systematical mapping of large numbers of genes in lists associated with biological annotations (e.g. GO terms). Three structured controlled vocabularies (ontologies) have been developed to describe gene products in a species-independent manner: the associated biological process (BP), cellular components and molecular functions. The GOTERM_BP_FAT set which has been specifically designed by the DAVID consortium was selected to filter the broadest terms in order to prevent overshadowing of more specific terms. FIG. 3 summarizes the top-3 GO-terms which were selected due to their highest GO P-values. As shown therein, the addition of […] edelfosine was leading to an upregulation of genes associated with apoptosis and cell death in the unstimulated setting, a finding that was in accordance with the previously described analysis for annexin V and PI after edelfosine incubation.
# [6] = system: relapsing-remitting EAE (RR-EAE) model in SJL mice; experiment: Relapsing-remitting EAE disease course, clinical scoring; type: in vivo
# Description: FIG. 6 describes the influence of edelfosine on EAE disease course. Our aim was to study the effect of edelfosine on the immune system in the context of experimental autoimmune encephalomyelitis (EAE), an animal model of multiple sclerosis. In the course of EAE CD4+ T cell and mononuclear cell inflammation is followed by axonal damage and demyelination in the central nervous system (CNS) which results in progressive hind-limb paralysis. In order to analyze the anti-inflammatory properties of edelfosine we have used the relapsing-remitting EAE (RR-EAE) model in SJL mice. We also examined the edelfosine impact on human T-cell proliferation. For EAE induction SJL mice were immunized with the proteolipid PLP(139-151). Edelfosine was adminstered by intraperitoneal injection from day 0 at a daily basis. EAE disease course was assessed by clinical scoring in a 0-5 scale until day 40 (*P<0.05, 2-way ANOVA, n=7). To investigate the therapeutic effect of edelfosine on RR-EAE disease course, SJL mice were immunized and treatment of the mice was started at disease onset by intraperitoneal injection from day 11 at a daily basis until day 45.
# [7] = system: lymph node cells of SJL mice; experiment: Ex vivo thymidine proliferation of lymph node cells from treated immunized mice; type: in vivo
# Method: FIG. 7 describes the impact of edelfosine on proliferation of antigen-specific cells. To examine the influence of edelfosine on antigen-specific cells in the periphery lymph nodes from SJL mice were prepared for thymidine proliferation assays 9 days after immunization. Cells were restimulated ex vivo by addition of mitogenic- (a), polyclonal or disease-relevant (PLP(139-151); b) antigen.
# [8] = system: CNS-infiltrating cells of EAE SJL mice; experiment: CNS cellular infiltration in EAE acute phase, flow cytometry; type: in vivo; conditions: 15 days after EAE induction
# Method: FIG. 8 describes the effect of edelfosine on CNS cellular infiltration in EAE acute phase. SJL mice were immunized with […]. 15 days after EAE induction CNS cells were analyzed by flow cytometry. The administration of 10 mg/kg edelfosine reduced the absolute number of CNS-infiltrating CD45+ leukocytes (a). […] We found a significant treatment effect with a significant difference between 10 mg/kg edelfosine and PBS treatment in CD4+ cells (*P<0.05 compared to PBS control group, post-hoc comparison after 1-way ANOVA, n=4). Similar differences were found for T cells in spleens at day 9 after immunization.
# non-stimulated PBMCs = experiment: Flow cytometry of non-stimulated PBMCs for cell death; type: cell-based, human; conditions: 10 μg/ml or 33.3 μg/ml, 24 h
# human CD4+ T cells [9] = experiment: Whole genome expression (microarray) analysis of CD4+ T cells; type: cell-based; conditions: unstimulated cells, 10 μg/ml, 30 h
# [10] = cells stimulated with anti-CD2/CD3/CD28 beads, 3.3 μg/ml, 30 h
# [11] = unstimulated cells, 10 μg/ml, 30 h
smiles,measurement,setting,value
"CCCCCCCCCCCCCCCCCCOC[C@H](COP(=O)([O-])OCC[N+](C)(C)C)OC (racemic) [edelfosine, 1-O-octadecyl-2-O-methyl-sn-glycero-3-phosphocholine]",IC50,"[1]; Homo sapiens, PBMC, 72 h, read-out: half maximal inhibitory concentration (IC50) of proliferation, PHA-stimulated cells, edelfosine added at seeding, three days of culture",0.64 ± 0.1 µg/mL
same,fold lower concentration at which PHA-activated cells are susceptible compared to cells without PHA,[1]; PHA-activated versus unstimulated PBMCs,10 fold
same,edelfosine concentration at which a reduction in proliferation was detectable,"[1]; unstimulated controls, added at seeding, three days",≥ 10 µg/mL
same,edelfosine concentration giving efficient reduction of proliferation,"human PBMCs [2]; PHA-activated cells, edelfosine added two days later",≥ 3.3 µg/mL
same,edelfosine concentration giving significant reduction of proliferation,human PBMCs [2]; unstimulated controls,33.3 µg/mL
same,edelfosine concentration up to which cells retain proliferative function,"human PBMCs [3]; 24 h preincubation, washed, PHA stimulation, three days",up to 1 μg/ml
same,effect on proliferation,human PBMCs [3]; preconditioned but unstimulated cells,no significant reductions of proliferation; also recorded: No effect
same,effect on proliferation without stimulus,human PBMCs [4],reduced to non-detectable levels; also recorded: inhibited cellular proliferation
same,expression of cell cycle-associated genes,human CD4+ T cells [5]; [10],downmodulation; also recorded: down-regulated
same,expression of genes associated with apoptosis and cell death,human CD4+ T cells [5]; [10],upregulation
same,"expression of immune and virus response-associated, type I interferon-related genes",human CD4+ T cells [5]; [10],consistent and profound upregulation; also recorded: upregulated
same,number of downregulated genes assigned to antigen processing and presentation (SLR≦−0.8),"human CD4+ T cells [5]; unstimulated cells, 10 μg/ml",25
same,expression of immune response and antigen processing and presentation (MHC class II) genes,human CD4+ T cells [5]; [11],downmodulation; also recorded: downregulated
same,number of upregulated genes (SLR≧0.8),human CD4+ T cells [5]; [11],11
same,EAE disease course,"[6]; prophylactic, 10 mg/kg daily intraperitoneal from day 0",EAE amelioration
same,EAE disease course,"[6]; therapeutic, 10 mg/kg daily intraperitoneal from disease onset (day 11)",EAE amelioration
same,proliferative function of lymph node cells on ex vivo restimulation,"[7]; 9 days after immunization, edelfosine-treated mice",retained their proliferative function
same,proliferation on re-activation with PLP peptide,"[7]; 9 days after immunization, ex vivo PLP restimulation",edelfosine dose-dependent proliferation
same,SI compared to PBS treatment of mice,"[7]; antigen-induced proliferation, edelfosine-treated mice",increased SI
same,absolute number of CNS-infiltrating CD45+ leukocytes,[8]; 10 mg/kg,reduced
same,frequencies of CD8+ T cells,[8]; 10 mg/kg,not affected
same,infiltrating CD4+ T cells,[8]; 10 mg/kg,relative decrease
same,activation of caspase 3 in CNS CD4+ T cells,[8]; significant for 10 mg/kg versus PBS,dose-dependent activation; also recorded: increased
same,cell death in non-stimulated PBMCs,non-stimulated PBMCs,induction of non-apoptotic cell death
same,expression of apoptosis- and cell death-associated genes,human CD4+ T cells [9],upregulation
